According to ChEMBL document CHEMBL1201862, “PubChem BioAssay data set” (2004):
Activity calls are given as the source filed them.

Tests used:
[1] = acridine orange displacement from DNA – biochemical, fluorescence polarization, cherry-pick, artefact control for RAD54 inhibitor project, dose response (AID 651673); format: functional
[2] = biological target: T1, Sentrin-specific protease 1 (Homo sapiens, UniProt Q9P0U3); assay: Dose response confirmation of small molecule inhibitors of the catalytic domain of the SUMO protease, SENP1 in a FRET assay.; format: functional; conditions: read-out: IC50_Mean
T1 sequence (Q9P0U3 whole entry): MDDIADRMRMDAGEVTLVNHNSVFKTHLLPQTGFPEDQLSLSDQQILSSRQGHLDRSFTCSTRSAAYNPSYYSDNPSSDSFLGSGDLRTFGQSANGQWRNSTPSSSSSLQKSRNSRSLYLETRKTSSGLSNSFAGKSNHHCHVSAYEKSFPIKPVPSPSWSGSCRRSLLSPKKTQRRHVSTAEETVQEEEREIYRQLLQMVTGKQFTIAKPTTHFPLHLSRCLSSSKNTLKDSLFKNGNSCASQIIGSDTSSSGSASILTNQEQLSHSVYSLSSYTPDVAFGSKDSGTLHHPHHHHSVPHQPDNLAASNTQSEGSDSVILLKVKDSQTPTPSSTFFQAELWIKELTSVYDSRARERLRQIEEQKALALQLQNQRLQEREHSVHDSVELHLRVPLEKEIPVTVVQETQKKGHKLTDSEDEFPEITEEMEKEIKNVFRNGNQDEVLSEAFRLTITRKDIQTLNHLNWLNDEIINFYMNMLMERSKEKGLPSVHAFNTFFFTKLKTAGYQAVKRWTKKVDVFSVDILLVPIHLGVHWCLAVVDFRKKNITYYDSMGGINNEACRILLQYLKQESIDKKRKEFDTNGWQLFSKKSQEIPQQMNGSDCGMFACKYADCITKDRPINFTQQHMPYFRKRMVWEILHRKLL

[3] = biological target: SWI/SNF-related matrix-associated actin-dependent regulator of chromatin subfamily A member 2 (Homo sapiens, UniProt P51531); assay: Luminescence-based cell-based high throughput dose response assay to identify activators of the function of SWI/SNF related, matrix associated, actin dependent regulator of chromatin, subfamily a, member 2 (SMARCA2, BRM).; format: functional
Vero = assay: cells; format: functional, Chlorocebus sabaeus; conditions: Chlorocebus sabaeus, Vero
[4] = Counterscreen for activators of the function of SWI/SNF related, matrix associated, actin dependent regulator of chromatin, subfamily a, member 2 (SMARCA2, BRM): Luminescence-based cell-based high throughput dose response assay to identify non-selective compounds using the VP16 reporter assay.; format: functional
[5] = biological target: T2, DNA repair and recombination protein RAD54-like (Homo sapiens, UniProt Q92698); assay: RAD54 Holliday junction migration blockers – biochemical, fluorescence, cherry-picked samples, dose series, confirmation (AID 651657); format: functional
T2 sequence (Q92698 whole entry): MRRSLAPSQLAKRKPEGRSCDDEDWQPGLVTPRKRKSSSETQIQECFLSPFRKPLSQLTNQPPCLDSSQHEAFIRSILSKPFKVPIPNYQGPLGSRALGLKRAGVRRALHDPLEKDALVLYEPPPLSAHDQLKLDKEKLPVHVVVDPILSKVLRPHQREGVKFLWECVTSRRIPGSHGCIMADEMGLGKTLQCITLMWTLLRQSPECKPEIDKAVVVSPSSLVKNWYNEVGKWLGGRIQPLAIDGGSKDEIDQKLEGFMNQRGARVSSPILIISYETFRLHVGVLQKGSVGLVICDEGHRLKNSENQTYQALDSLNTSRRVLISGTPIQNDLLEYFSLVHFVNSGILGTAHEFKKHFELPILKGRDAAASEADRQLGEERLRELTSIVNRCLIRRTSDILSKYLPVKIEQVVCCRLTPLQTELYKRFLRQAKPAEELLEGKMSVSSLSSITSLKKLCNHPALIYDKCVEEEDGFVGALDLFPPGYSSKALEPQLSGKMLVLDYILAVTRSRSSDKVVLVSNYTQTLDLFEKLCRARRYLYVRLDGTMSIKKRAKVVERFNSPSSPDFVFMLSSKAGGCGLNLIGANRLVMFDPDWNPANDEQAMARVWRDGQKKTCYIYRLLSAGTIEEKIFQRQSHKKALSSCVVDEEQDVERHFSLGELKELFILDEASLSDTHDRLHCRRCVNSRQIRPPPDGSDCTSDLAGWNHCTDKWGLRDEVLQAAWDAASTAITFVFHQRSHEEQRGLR

[6] = biological target: T1, Sentrin-specific protease 1; assay: SENP1 catalytic domain blockers, concentration series – biochemical, kinetic FRET, dose response (AID 651697); format: functional; conditions: read-out: IC50_Mean
[7] = biological target: T3, DNA repair protein RAD52 homolog (Homo sapiens, UniProt P43351); format: functional, biochemical
T3 sequence (P43351 whole entry): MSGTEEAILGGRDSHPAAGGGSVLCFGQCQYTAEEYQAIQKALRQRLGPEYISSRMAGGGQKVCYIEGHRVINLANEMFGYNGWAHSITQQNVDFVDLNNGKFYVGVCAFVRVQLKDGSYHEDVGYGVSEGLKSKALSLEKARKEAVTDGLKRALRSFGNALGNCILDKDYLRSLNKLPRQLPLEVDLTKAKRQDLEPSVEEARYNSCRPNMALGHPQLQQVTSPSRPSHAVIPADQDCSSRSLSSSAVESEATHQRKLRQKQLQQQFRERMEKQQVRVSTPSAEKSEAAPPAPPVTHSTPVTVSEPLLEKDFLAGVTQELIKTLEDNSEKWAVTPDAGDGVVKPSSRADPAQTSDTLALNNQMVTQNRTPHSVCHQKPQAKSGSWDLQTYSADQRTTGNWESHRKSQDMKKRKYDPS

Sequence of SWI/SNF-related matrix-associated actin-dependent regulator of chromatin subfamily A member 2 (P51531 whole entry): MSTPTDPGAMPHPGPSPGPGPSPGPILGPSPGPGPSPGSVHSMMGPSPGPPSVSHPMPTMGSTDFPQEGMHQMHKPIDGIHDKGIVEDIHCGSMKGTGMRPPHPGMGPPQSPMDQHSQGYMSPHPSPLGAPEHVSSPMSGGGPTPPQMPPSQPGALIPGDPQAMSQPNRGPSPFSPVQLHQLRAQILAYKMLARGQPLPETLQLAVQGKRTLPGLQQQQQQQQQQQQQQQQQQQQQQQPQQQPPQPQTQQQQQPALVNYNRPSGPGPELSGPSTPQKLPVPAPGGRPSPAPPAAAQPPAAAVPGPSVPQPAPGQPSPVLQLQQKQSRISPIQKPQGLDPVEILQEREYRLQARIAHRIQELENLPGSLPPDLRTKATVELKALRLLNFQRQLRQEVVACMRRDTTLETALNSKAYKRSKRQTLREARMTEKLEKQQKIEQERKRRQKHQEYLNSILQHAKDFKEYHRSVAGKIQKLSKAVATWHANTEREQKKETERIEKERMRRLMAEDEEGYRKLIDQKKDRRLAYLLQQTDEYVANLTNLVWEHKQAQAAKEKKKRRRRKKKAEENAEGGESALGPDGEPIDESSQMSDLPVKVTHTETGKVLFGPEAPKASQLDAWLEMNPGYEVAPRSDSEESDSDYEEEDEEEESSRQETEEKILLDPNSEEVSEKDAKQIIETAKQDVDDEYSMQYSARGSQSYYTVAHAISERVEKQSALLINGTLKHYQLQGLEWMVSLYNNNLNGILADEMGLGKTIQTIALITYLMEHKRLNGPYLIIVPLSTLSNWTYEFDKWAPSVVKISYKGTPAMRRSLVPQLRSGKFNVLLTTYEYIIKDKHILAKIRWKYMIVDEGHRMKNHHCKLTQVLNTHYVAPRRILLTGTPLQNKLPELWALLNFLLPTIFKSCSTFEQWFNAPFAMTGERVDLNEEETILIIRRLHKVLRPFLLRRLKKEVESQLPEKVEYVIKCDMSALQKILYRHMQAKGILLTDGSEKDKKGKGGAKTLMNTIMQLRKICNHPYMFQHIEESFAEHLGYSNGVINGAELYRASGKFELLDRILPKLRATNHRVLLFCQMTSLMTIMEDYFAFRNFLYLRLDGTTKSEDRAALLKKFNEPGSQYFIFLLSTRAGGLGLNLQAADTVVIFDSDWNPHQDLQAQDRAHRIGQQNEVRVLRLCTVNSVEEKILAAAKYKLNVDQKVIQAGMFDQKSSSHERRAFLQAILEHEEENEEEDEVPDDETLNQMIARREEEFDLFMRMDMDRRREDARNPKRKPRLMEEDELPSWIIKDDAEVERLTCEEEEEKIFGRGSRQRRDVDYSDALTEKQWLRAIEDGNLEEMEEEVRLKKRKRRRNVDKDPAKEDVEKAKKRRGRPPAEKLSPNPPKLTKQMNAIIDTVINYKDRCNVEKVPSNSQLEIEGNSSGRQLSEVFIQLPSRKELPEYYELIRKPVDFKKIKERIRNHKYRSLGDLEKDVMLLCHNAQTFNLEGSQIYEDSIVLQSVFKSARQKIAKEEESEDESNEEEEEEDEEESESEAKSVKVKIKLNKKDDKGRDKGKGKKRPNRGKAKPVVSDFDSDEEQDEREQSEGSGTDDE

CCN(CC)CCNc1ccc(CO)c2oc3cc(Cl)ccc3c(=O)c12
active: AC50 [1] 63.1 µM | CC50 (Vero) 16.7 µM | AC50 [5] 10.2 µM | IC50 [6] 19.8 µM | AC50 [7] 12.5 µM
inactive: IC50 [2] 24 µM | EC50 [3] > 91.2 µM | EC50 [4] > 91.2 µM
